Test results taken from publication PMC10427391, “Identification of Cytochrome P450 2E1 as a Novel Target in Glioma and Development of Its Inhibitor as an Anti‐Tumor Agent” (Advanced Science, 2023).

Experiments:
CYP2E1 [1] = target: T1, CYP2E1 (Rattus norvegicus, UniProt P05182); assay: In vivo inhibition of CYP2E1 activity by metabolism of diethylnitrosamine (DEN), self-controlled cross-administration; parameters: species or system rats; settings: DEN 50 mg kg^−1 i.p.
T1 construct: from tissue; host or cells: living rats (whole animal, endogenous enzyme)
Procedure: A self‐controlled cross‐administration experiment was designed based on previous report.^[ [45] ^] In the first round of the experiment, a single intraperitoneal injection of diethylnitrosamine at 50 mg kg^−1 was given in the first week. After a 1‐week interval, the second round of the experiment was conducted, where each rat was given Q11 at 6, 30, or 150 mg kg^−1 (i.g), and then, after 5 min, an intraperitoneal injection of diethylnitrosamine at 50 mg kg^−1 was given. Collection of orbital blood was carried out at 2, 7, 15, 30 min and 1, 2, 4, 6, 9, 12, 24, 36, 48, 60 h.

CYP2E1 [2] = target: CYP2E1 (Homo sapiens, UniProt P05181); assay: Surface plasmon resonance binding of Q11 to CYP2E1 (Biacore 8k); parameters: purchased Cloud-Clone Corp. Wuhan
Procedure: Surface Plasma Resonance (SPR) experiments^[ [43] ^] were carried out using the Biacore system (Biacore 8k, Cytiva). Recombinant CYP2E1 protein was purified by Cloud‐Clone Corp. Wuhan. Running buffer contained PBS (2 mM KH2PO4, 10 mM Na2HPO4, 137 mM NaCl, 2.7 mM KCl) with 0.005% Tween‐20, pH 7.4. CYP2E1 protein was diluted to 25 µg mL^−1 in immobilization buffer and bound to a CM5 chip at about 2000RU. Immobilization buffer contained 10 mM sodium acetate, pH 4.0. Samples of compound Q11 were diluted in running buffer with 125, 62.5, 31.25, 15.625, 7.8, 3.9, 1.95 µM and injected at 30 µL min^−1 for 60 s contact time followed by dissociation for 120 s. The data was fitted with Biacore Insight Evaluation software (Version 2.0).

[3] = test system: glioma induced by U251‐LUC cells; assay: Intracranial orthotopic glioma model induced by U251-LUC cells
HMC‐3 cells = assay: HMC-3 cells transfected with CYP2E1 plasmids: PPAR-γ and cytokines; settings: HMC-3 transfected with CYP2E1 plasmids
[4] = In vivo biodistribution / BBB permeability of Q11 (plasma, cortex, hippocampus, HPLC)
GL261 cells = assay: Proliferation of glioma cells in indirect co-culture with microglia/macrophages, GL261; settings: co-cultured with primary microglia, RAW 264.7 or THP-1 macrophages
primary microglia = assay: Primary microglia induced by IL-4 and IL-13: polarization markers and signaling (western blot, immunofluorescence)
Procedure: Tissues and cells were harvested and lysed with RIPA buffer. The protein concentration was determined using a BCA kit. Samples were separated on 10% SDS‐PAGE gels and blotted onto nitrocellulose membranes (Millipore).The membranes were incubated with primary antibodies at 4 °C overnight, washed three times with TBST, and then incubated with HRP‐conjugated anti‐mouse IgG or anti‐rabbit IgG diluted in TBST containing 1% non‐fat milk at room temperature for 1 h. After final washing with TBST, the membranes were developed by using ECL.

[5] = endpoint day 36 after transplantation
[6] = IL-4 and IL-13 10 ng mL^−1, 24 h
[7] = Q11 medium- and high-dose groups vs IL-4/IL-13 group

T1 sequence (P05182 whole entry): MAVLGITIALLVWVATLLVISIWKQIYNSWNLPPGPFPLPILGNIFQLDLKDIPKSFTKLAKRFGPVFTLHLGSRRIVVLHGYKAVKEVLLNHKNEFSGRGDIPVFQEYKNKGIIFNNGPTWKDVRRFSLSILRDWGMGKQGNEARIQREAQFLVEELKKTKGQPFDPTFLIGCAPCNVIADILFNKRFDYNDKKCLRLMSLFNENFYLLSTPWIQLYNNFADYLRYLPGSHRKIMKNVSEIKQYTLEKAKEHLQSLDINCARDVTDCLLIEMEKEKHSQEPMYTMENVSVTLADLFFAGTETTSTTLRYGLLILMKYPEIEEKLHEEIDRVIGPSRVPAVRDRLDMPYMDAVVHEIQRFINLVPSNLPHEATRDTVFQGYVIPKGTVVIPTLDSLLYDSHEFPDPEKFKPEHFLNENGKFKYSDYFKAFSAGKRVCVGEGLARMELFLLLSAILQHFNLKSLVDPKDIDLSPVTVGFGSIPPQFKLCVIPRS
CYP2E1 (Homo sapiens, UniProt P05181), sequence (P05181 whole entry, species assumed): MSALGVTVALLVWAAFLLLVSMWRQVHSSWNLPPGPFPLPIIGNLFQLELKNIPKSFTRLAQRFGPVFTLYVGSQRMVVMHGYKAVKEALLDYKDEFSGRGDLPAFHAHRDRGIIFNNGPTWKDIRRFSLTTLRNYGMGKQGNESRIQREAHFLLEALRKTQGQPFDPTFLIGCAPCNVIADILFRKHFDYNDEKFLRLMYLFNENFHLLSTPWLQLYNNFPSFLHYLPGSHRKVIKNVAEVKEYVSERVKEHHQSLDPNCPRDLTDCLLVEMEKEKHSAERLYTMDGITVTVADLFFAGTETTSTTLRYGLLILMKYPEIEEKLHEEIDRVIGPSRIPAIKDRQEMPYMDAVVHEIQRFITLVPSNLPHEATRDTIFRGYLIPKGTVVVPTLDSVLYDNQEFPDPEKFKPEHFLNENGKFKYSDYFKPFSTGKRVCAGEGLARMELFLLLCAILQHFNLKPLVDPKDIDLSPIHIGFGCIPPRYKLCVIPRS

SMILES: CC(=O)c1scnc1C [Compound Q11, 1‐(4‐methyl‐5‐thialzolyl) ethanone]
- inhibition ratio in terms of clearance (CL) of diethylnitrosamine (DEN) (CYP2E1 [1]; Q11 6 mg kg^−1 i.g.): 63.98%
- inhibition ratio in terms of clearance (CL) of diethylnitrosamine (DEN) (CYP2E1 [1]; Q11 30 mg kg^−1 i.g.): 79.63%
- inhibition ratio in terms of clearance (CL) of diethylnitrosamine (DEN) (CYP2E1 [1]; Q11 150 mg kg^−1 i.g.): 85.42%
- Kd (CYP2E1 [2]): 7 µM
- bioluminescence in tumor sites ([3]; day 14 after transplantation, Q11 at 10 and 30 mg kg^−1): lesser bioluminescence
- brain weight [3, 5]: markedly suppressed
- tumor diameter [3, 5]: markedly suppressed
- tumor volume [3, 5]: markedly suppressed
- changes caused by CYP2E1 overexpression (PPAR-γ, IL-4, IL-10, TGFβ up; IL-1α, IL-1β down) (HMC‐3 cells): significantly blocked the changes
- plasma concentration at peak ([4]; SD rats, 30 mg kg^−1 intragastric, about 1 h): 14.75 ng/mL
- blood brain barrier (BBB) permeability ([4]; SD rats, 30 mg kg^−1 intragastric, cortex and hippocampus parallel to plasma): capable of penetrating BBB
- Tmax ([4]; female, SD, rat, in vivo, po, 30 mg/kg): ~1 h
- concentration at 4 h ([4]; female, SD, rat, plasma, oral, 30 mg kg^−1): 9.21 ng/mL
- proliferation of GL261 cells in co-culture (GL261 cells): significantly inhibited
- Arg-1 (M2 marker) expression (primary microglia; [6]): significantly reduced
- iNOS (M1 marker) expression (primary microglia; [6]): increased
- p-STAT-1 and p-NF-κB (primary microglia; [7]): significantly increased
- p-STAT-3 and p-STAT-6 (primary microglia; [7]): significantly decreased
- PPAR-γ expression (primary microglia; after induction by IL-4 and IL-13): significantly inhibited
